From publication PMC5569935, “Pleiotropic Effects of Biguanides on Mitochondrial Reactive Oxygen Species Production” (Oxidative Medicine and Cellular Longevity, 2017)
Each block holds one molecule with its values, some of them ahead of it.

Legend:
treated patients = conditions: cited from earlier work
[1] = system: H2O2 (ROS) production of BAT mitochondria; assay: Fluorometric detection of hydrogen peroxide production (Amplex UltraRed) in fresh BAT mitochondria; assay type: biochemical, rat; conditions: for ROS production on titration, all substrates tested: metformin 0–200 mM or phenformin 0–60 mM, pattern highly similar for all substrates
Protocol: (§1) We used interscapular brown adipose tissue (BAT) of four-week-old Wistar rats kept at 22°C under 12 h/12 h light/dark cycle on a standard diet and water supply ad libitum. All animal works were approved by the institutional ethics committee and were in accordance with the EU Directive 2010/63/EU for animal experiments. Mitochondria were isolated in STE medium (250 mM sucrose, 10 mM Tris–HCl, 1 mM EDTA, pH 7.4) and supplemented with BSA (10 mg/mL) by differential centrifugation. Quality of isolation was routinely checked by oxygraph, and fresh mitochondria were used for measurements of oxygen consumption and hydrogen peroxide production. Subsequently, frozen-thawed mitochondria were used for determination of enzymatic activities; as in such preparations, the integrity of mitochondrial membrane is disrupted and NADH has therefore access to the oxidation site of NDH. Also, freezing/thawing ensures that the membrane potential is not maintained.
Hydrogen peroxide production was determined fluorometrically by measuring oxidation of Amplex UltraRed (Thermo Fisher) essentially as before. Fluorescence of the Amplex UltraRed oxidation product was measured at 37°C using Tecan Infinite M200 multiwell fluorometer. Excitation/emission wavelengths were 544 nm (bandwidth 15 nm)/590 nm (bandwidth 30 nm). The assay was performed with 10 μg of mitochondrial protein in KCl-based medium (120 mM KCl, 3 mM HEPES, 5 mM KH2PO4, 3 mM MgSO4, 1 mM EGTA, 3 mg/mL BSA, pH 7.2) supplemented either with 10 mM pyruvate plus 2 mM malate, 10 mM succinate, or 10 mM GP. Amplex UltraRed was used at the final concentration of 50 μM with horseradish peroxidase (HRP) at 1 U/mL. Fluorescence signal from the well containing all substrates and inhibitors, but not mitochondria, was subtracted as a background for every experimental condition used. Background, caused mostly by autoxidation of the dye or nonenzymatic effect of inhibitors on apparent ROS production, varied between conditions from 0 to 1 pmol/s/mg and was uniform across respective titration points. Signal was calibrated using H2O2 at the final concentration of 0–5 μM, and H2O2 stock concentration was routinely checked by measuring its absorption at 240 nm.

[2] = system: pyruvate plus malate-supported oxygen consumption (NDH); assay: Pyruvate plus malate-supported oxygen consumption of BAT mitochondria; assay type: biochemical, rat
Protocol: as §1
(§2) Oxygen consumption was measured at 30°C as described before using Oxygraph-2k (Oroboros, Austria). Measurements were performed in 2 mL of KCl medium (80 mM KCl, 10 mM Tris–HCl, 3 mM MgCl2, 1 mM EDTA, 5 mM K-Pi, pH 7.4) using 15–60 μg protein/mL of freshly isolated mitochondria. For measurements, 10 mM pyruvate plus 2 mM malate, 10 mM succinate, or 10 mM GP, respectively, were used. The oxygen consumption was expressed in pmol oxygen/s/mg protein.

[3] = system: NADH dehydrogenase (complex I, NDH); assay: NDH enzyme activity (NADH oxidoreductase) in BAT mitochondria; assay type: biochemical, rat
Protocol: as §1, with “Also, freezing/thawing ensures that the membrane potential is not maintained.” left out
(§3) Activities of mitochondrial dehydrogenases were determined spectrophotometrically as NADH oxidoreductases (NDH, monitored at 340 nm, ε340 = 6.22 mM^−1·cm^−1) or CoQ1 oxidoreductases (SDH and mGPDH, monitored at 275 nm, ε275 = 13.6 mM^−1·cm^−1). […] The reaction was started by adding 100 μM NADH, 25 mM glycerophosphate (GP), or 25 mM succinate, respectively, and after 5–10 minutes, changes of absorbance were monitored at 30°C. Enzyme activities were expressed as pmol/s/mg protein.

[4] = system: respiration of BAT mitochondria (pyruvate plus malate, succinate, glycerophosphate); assay: Polarographic oxygen consumption of isolated BAT mitochondria with substrates of NDH, SDH and mGPDH; assay type: biochemical, rat; conditions: at the same concentrations as enzyme inhibition (IC50 80 to 180 mM)
Protocol: as §1, §2

[5] = target: respiratory chain dehydrogenases NDH, SDH, and mGPDH; assay: Enzyme activity assays of mitochondrial dehydrogenases in frozen-thawed BAT mitochondria (spectrophotometry); assay type: biochemical, rat; conditions: isolated BAT mitochondria, range over all three enzymes, read-out: IC50, inhibition of respiratory chain dehydrogenase enzyme activities (NDH, SDH, mGPDH)
Protocol: as §1, with “Also, freezing/thawing ensures that the membrane potential is not maintained.” left out
as §3

[6] = reported values; cited from earlier work
[7] = target: T1, succinate dehydrogenase (SDH) (Rattus norvegicus, UniProt P21913+Q641Z9+Q6PCT8+Q920L2); assay: SDH activity (succinate:CoQ1 oxidoreductase / succinate respiration) in BAT mitochondria; assay type: biochemical
T1 construct: from tissue; host or cells: mitochondria isolated from rat interscapular brown adipose tissue
T1 sequence (Q920L2 35-656): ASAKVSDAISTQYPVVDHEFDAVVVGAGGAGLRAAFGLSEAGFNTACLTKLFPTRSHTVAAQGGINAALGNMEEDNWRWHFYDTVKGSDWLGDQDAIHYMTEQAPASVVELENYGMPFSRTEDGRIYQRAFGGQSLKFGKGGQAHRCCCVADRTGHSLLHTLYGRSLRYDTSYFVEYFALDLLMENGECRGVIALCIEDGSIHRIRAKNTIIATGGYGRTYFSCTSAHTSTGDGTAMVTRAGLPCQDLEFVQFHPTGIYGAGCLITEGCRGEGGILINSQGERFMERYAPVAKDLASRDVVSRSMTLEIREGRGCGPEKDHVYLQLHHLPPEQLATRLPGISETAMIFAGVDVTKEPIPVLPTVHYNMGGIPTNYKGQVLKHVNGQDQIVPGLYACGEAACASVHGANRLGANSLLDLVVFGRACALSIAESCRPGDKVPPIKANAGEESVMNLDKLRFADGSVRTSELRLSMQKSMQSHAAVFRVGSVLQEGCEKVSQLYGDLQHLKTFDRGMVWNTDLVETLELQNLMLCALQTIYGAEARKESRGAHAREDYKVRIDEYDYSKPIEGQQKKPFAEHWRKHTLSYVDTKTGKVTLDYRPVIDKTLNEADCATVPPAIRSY
T1 sequence (P21913 31-282): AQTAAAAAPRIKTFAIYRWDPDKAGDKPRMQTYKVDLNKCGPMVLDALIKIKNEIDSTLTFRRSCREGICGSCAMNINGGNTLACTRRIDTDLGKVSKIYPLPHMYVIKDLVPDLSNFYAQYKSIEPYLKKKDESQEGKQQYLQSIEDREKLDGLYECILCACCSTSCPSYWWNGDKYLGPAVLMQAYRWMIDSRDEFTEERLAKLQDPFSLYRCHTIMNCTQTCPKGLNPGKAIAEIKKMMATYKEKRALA
T1 sequence (Q641Z9 30-169 limits assumed): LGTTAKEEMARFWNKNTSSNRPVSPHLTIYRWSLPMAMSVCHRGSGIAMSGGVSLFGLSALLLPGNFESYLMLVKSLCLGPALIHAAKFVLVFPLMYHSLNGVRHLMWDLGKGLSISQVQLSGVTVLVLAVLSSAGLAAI
T1 sequence (Q6PCT8 57-159): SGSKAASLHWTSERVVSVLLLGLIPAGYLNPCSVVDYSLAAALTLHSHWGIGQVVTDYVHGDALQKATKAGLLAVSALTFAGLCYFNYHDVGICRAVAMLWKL
Protocol: as §1, with “Subsequently, frozen-thawed mitochondria were used for determination of enzymatic activities; as in such preparations, the integrity of mitochondrial membrane is disrupted and NADH has therefore access to the oxidation site of NDH. Also, freezing/thawing ensures that the membrane potential is not maintained.” left out
as §3
Oxygen consumption was measured at 30°C as described before using Oxygraph-2k (Oroboros, Austria). […]

[8] = target: T2, mitochondrial glycerophosphate dehydrogenase (mGPDH) (Rattus norvegicus, UniProt P35571); assay: mGPDH activity (glycerophosphate:CoQ1 oxidoreductase) in BAT mitochondria; assay type: biochemical
T2 construct: from tissue; host or cells: mitochondria isolated from rat interscapular brown adipose tissue
T2 sequence (P35571 43-727): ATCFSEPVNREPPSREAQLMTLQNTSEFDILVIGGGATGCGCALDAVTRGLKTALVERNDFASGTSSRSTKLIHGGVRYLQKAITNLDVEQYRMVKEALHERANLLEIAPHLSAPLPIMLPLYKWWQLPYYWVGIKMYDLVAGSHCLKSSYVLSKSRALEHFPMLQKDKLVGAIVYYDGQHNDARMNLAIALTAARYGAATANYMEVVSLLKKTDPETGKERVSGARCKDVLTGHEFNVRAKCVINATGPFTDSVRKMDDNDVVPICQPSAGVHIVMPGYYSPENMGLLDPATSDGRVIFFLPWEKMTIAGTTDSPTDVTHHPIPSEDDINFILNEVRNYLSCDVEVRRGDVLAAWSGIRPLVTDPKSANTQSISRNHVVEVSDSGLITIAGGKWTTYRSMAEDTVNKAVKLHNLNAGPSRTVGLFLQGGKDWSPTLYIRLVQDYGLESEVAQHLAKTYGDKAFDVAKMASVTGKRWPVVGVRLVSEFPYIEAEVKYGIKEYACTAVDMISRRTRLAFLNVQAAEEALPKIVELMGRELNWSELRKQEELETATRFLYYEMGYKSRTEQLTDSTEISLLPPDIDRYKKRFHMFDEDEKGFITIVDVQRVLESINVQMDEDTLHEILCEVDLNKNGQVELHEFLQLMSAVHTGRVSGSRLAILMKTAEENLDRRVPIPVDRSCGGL
Protocol: as §1, with “Also, freezing/thawing ensures that the membrane potential is not maintained.” left out
as §3

Compound: [H]/N=C(/N)N/C(=N/[H])NCCc1ccccc1 [phenformin]
Adverse effect leading to discontinued use (treated patients): induction of lactic acidosis
ROS production on titration, all substrates tested [1]: dose-dependent increase in ROS production

Compound: C=C(C)[C@H]1Cc2c(ccc3c2O[C@@H]2COc4cc(OC)c(OC)cc4[C@@H]2C3=O)O1 [rotenone]
Concentration of complete inhibition of pyruvate plus malate-supported oxygen consumption [2]: 500 nM
Concentration of complete inhibition of complex I enzyme activity ([3]; BAT mitochondria): 500 nM
Rate of H2O2 production with NADH-linked substrates ([1]; 10 mM pyruvate and 2 mM malate, 1 μM rotenone): increased the rate of H2O2 production

IC50 [5]: > 80000 µM
Compound: CN(C)C(=N)N=C(N)N [metformin, dimethyl biguanide]
Effect on respiration with pyruvate and malate, succinate and glycerophosphate [4]: inhibited respiration
Concentration inside tumors [6]: 1000 to 10000 nM
Sensitivity of NDH activity to inhibitory action relative to SDH and mGPDH ([3]; metformin titration 0–200 mM, 100 μM NADH): most sensitive
ROS production on titration, all substrates tested [1]: dose-dependent increase in ROS production

Compound: COc1[nH]c(=O)c(C(=O)[C@@H](C)C[C@H](C)[C@@H](Cl)CCl)c(O)c1OC [atpenin A5]
Concentration of complete inhibition of SDH ([7]; succinate as a substrate): 20 nM
ROS production with low levels of succinate ([1]; 0.4 mM succinate, 0.5 μM atpenin A5): pronounced increase in ROS production

IC50 ([7]; enzyme activity and oxygen consumption, 10 mM succinate (Figures 4(b) and 4(d)), read-out: IC50, nonspecific action on SDH): ~80 µM
Concentration at which activity of mGPDH was abolished [8]: 50 µM
Compound: O=C(O)CCC(=O)Nc1ccc(-c2nc3ccccc3[nH]2)cc1 [iGP-1]
GP-dependent ROS production ([1]; 10 mM glycerophosphate, 100 μM iGP-1): inhibited
